Biological target: T1, TLR4 (Mus musculus, UniProt Q9JHF9+Q9QUK6)
T1 sequence (Q9QUK6 26-835): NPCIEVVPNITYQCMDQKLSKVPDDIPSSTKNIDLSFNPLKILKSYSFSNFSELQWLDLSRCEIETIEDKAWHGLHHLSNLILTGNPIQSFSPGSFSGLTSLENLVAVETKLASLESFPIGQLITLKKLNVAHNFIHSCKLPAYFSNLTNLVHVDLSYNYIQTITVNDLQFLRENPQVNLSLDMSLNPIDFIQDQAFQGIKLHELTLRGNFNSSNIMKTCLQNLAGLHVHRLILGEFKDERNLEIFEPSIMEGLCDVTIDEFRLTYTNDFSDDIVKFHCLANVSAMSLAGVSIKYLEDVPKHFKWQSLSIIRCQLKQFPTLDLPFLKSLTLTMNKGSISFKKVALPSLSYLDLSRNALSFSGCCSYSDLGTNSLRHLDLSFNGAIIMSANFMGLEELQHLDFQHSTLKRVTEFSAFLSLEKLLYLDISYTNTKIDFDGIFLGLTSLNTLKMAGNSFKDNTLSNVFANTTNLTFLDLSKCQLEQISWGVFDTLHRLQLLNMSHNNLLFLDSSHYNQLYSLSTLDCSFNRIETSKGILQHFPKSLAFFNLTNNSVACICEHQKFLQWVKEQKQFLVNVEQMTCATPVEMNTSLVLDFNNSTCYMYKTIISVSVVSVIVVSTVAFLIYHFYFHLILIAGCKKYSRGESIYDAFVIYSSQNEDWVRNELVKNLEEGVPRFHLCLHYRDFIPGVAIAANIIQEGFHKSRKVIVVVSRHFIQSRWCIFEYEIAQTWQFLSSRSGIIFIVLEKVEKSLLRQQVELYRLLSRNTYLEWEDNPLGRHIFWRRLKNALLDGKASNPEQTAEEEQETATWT
T1 sequence (Q9JHF9 19-160): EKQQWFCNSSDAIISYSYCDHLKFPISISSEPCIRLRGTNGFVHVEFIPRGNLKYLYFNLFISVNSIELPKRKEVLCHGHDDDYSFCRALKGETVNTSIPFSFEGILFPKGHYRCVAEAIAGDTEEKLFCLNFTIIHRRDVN
Assay: NFκB-luciferase reporter assay in HEK 293 cells stably expressing TLR4, MD2 and/or CD14
Format: cell-based, murine
Parameters: expressed in transfected cells; host or cells: HEK 293
Description: Model ECM environment. Tissue culture plates were coated with ECM as follows. PAEC were seeded into 6-well (3×10^5 cells/well), 24-well (5×10^4 cells/well) or 100 mm (2×10^5 cells) fibronectin-coated tissue culture plates (BD Biosciences, San Jose, Calif.) in DMEM (Invitrogen) containing 10% fetal bovine serum supplemented with penicillin and streptomycin and 4% w/v of Dextran 40. The cell cultures were incubated at 37° C. in 5% CO2 humidified atmosphere for seven days and were supplemented with […] on day three and day five. After 7 days, endothelial cells were washed once with phosphate buffered saline (PBS) and lysed by exposure to 0.5% w/v Triton X-100 and 20 mM NH4OH in PBS (pH 7.4) at 37° C. for 20 minutes (Bonifacino, 1998). The wells were then washed 4 times with PBS (pH 7.4) and inspected microscopically to ensure removal of the cells. Plates were used immediately or were stored in PBS (pH 7.4) with […] at 4° C.
HEK 293 cells were stably transfected with the TLR4 and MD2 or CD14 expression plasmids using Superfect (Qiagen, Valencia, Calif.) following the manufacturer's instructions. HEK 293 cells expressing TLR4 and MD2 or CD14 were obtained by culturing the transfected cells with appropriate antibiotic selection medium, and were cloned by limiting dilution in the selection medium. HEK 293 cells expressing TLR4, MD2 and CD14 were generated by transfecting HEK 293 cells that expressed TLR4 and MD2 with the CD14 expression plasmid, and selecting clones using appropriate antibiotic containing medium. Cell lines expressing TLR4 and MD2 and/or CD14 were then maintained in DMEM supplemented with 10% fetal bovine serum and the appropriate selection antibiotics. Control cell lines were transfected with empty expression vectors and incubated in selection conditions as described above. Selected clones were tested for cell surface expression of the TLR4/MD2 complex and CD14 by flow cytometry using monoclonal antibodies specific for the TLR4/MD2 complex or CD14.
NFκB-luciferase reporter assays. Activation of NFκB was measured using a NFκB-luciferase reporter assay. HEK 293 cell lines stably expressing TLR4, MD2 and/or CD14, or control cells were seeded into 24 well tissue culture plates (2×10^5 cells/well) in 1.0 ml DMEM containing 10% fetal bovine serum and penicillin and streptomycin. The cells were allowed to adhere to the culture wells at 37° C. overnight and were then transfected with […] NFκB-firefly-luciferase using Superfect Transfection Reagent (Qiagen). Following transfection, the cells were washed once with phosphate buffered saline and cultured for 24 hours at 37° C. in 1.0 ml DMEM containing 0.5% fetal bovine serum. After various treatments, the culture medium was aspirated and the cells were washed once with PBS. The cells were lysed in […] Passive Lysis Buffer (Promega) with rocking at room temperature for 15 minutes. Renilla- and Firefly-luciferase were assayed simultaneously using the Dual-Luciferase Reporter Assay System (Promega) and a TD-20/20 luminometer (Turner Designs, Sunnyvale, Calif.). Activation of NFκB was reported as a ratio of the firefly luciferase activity to the constitutively expressed Renilla luciferase internal control, and is the mean of triplicate wells.
To determine whether and under what conditions HS stimulates TLR4, various combinations of TLR4, MD2 and CD14, components of the putative TLR4 receptor complex, were stably expressed in HEK 293 cells and the effect of HS on TLR4 signaling in the transfected cells was examined (FIG. 1). The HEK 293 cells expressing receptor components were transiently transfected with a NFκB-firefly luciferase reporter construct along with a Renilla-luciferase internal control reporter construct. […]

[1] = HEK 293 cells lacking TLR4 and MD2 or CD14
[2] = HEK 293 cells that expressed TLR4, MD2, and CD14

In the case of heparan sulfate [HS], the “Activation of NFκB-luciferase reporter” value [1] is reported as “did not respond” and the “Activation of NFκB-luciferase reporter” value [2] is reported as “activated”.

With “elastase: pancreatic elastase (Calbiochem; type IV porcine pancreatic elastase, Sigma-Aldrich), protease that cleaves ECM proteins” the “NFκB reporter response to elastase alone” value (HEK/TLR4(+) cells cultured in ECM, elastase 0.1 U/ml, no HS) was “did not respond”, the “NFκB reporter response to elastase alone” value (HEK/TLR4(+) cells cultured on ECM, elastase 0.3 U/ml) was “responded even without addition of HS” and the “Activation in response to HS relative to cells not treated with elastase” value (HEK/TLR4(+) cells on ECM, elastase 0.1 U/ml plus HS) was 2 fold. The “Activation of reporter expression after elastase pre-treatment and treatment with HS or LPS” value (HEK/TLR4(+) cells on PAEC ECM, versus control cells not pre-treated) was “greater” and the “NFκB reporter response to elastase” value (HEK/TLR4(+) cells on fibronectin, elastase 0.1 or 0.3 U/ml) was “did not respond to either concentration of elastase”.

In the case of lipopolysaccharide [LPS], the “Activation of NFκB-luciferase reporter” value [1] is reported as “did not respond”, the “Activation of NFκB-luciferase reporter” value [2] is reported as “activated” and the “Effect of nitrous acid treatment on ability to stimulate TLR4” value (HEK/TLR4(+) cells, nitrous acid pH 4.0 or pH 1.5) is reported as “did not affect”.

— patent US20100158808A1, “Altered Activity of Toll-Like Receptors” (priority 2003, published 2010)
